Laboratory results reported in ChEMBL document CHEMBL3632622, “Synthesis and biological evaluation of novel N-phenyl ureidobenzenesulfonate derivatives as potential anticancer agents. Part 2. Modulation of the ring B” (Eur J Med Chem, 2015).
Activity calls are given as the source filed them. The calls are words filed in the database; no cut-off is given here.

Key:
[1] = Antiproliferative activity against human HT1080 cells assessed as growth inhibition incubated for 48 hrs by sulforhodamine B assay; assay type: functional, cell-based, HT-1080; conditions: Homo sapiens, HT-1080, 48 h; read-out: IC50
[2] = tested on: M21; assay: Antiproliferative activity against human M21 cells assessed as growth inhibition incubated for 48 hrs by sulforhodamine B assay; assay type: functional, cell-based; conditions: M21, 48 h
[3] = tested on: HT-29; assay: Antiproliferative activity against human HT-29 cells assessed as growth inhibition incubated for 48 hrs by sulforhodamine B assay; assay type: functional, cell-based; conditions: HT-29, 48 h
[4] = tested on: MCF7; assay: Antiproliferative activity against human MCF7 cells assessed as growth inhibition incubated for 48 hrs by sulforhodamine B assay; assay type: functional, cell-based; conditions: MCF7, 48 h
[5] = tested on: M21; assay: Cell cycle arrest in human M21 cells assessed as accumulation at subG1 phase at 16 uM after 24 hrs by DAPI staining-based flow cytometry (reference value: 1.5%); assay type: functional
[6] = tested on: M21; assay: Cell cycle arrest in human M21 cells assessed as accumulation at G0/G1 phase at 16 uM after 24 hrs by DAPI staining-based flow cytometry (reference value: 65.1%); assay type: functional
[7] = tested on: M21; assay: Cell cycle arrest in human M21 cells assessed as accumulation at S phase at 16 uM after 24 hrs by DAPI staining-based flow cytometry (reference value: 17.4%); assay type: functional
[8] = tested on: M21; assay: Cell cycle arrest in human M21 cells assessed as accumulation at G2/M phase at 16 uM after 24 hrs by DAPI staining-based flow cytometry (reference value: 16%); assay type: functional
[9] = tested on: M21; assay: Cell cycle arrest in human M21 cells assessed as accumulation at subG1 phase at 2.2 uM after 24 hrs by DAPI staining-based flow cytometry (reference value: 1.5%); assay type: functional
[10] = tested on: M21; assay: Cell cycle arrest in human M21 cells assessed as accumulation at G0/G1 phase at 2.2 uM after 24 hrs by DAPI staining-based flow cytometry (reference value: 65.1%); assay type: functional
[11] = tested on: M21; assay: Cell cycle arrest in human M21 cells assessed as accumulation at S phase at 2.2 uM after 24 hrs by DAPI staining-based flow cytometry (reference value: 17.4%); assay type: functional
[12] = tested on: M21; assay: Cell cycle arrest in human M21 cells assessed as accumulation at G2/M phase at 2.2 uM after 24 hrs by DAPI staining-based flow cytometry (reference value: 16%); assay type: functional
[13] = tested on: M21; assay: Cell cycle arrest in human M21 cells assessed as accumulation at G0/G1 phase at 10 uM after 24 hrs by DAPI staining-based flow cytometry (reference value: 65.1%); assay type: functional
[14] = tested on: M21; assay: Cell cycle arrest in human M21 cells assessed as accumulation at S phase at 10 uM after 24 hrs by DAPI staining-based flow cytometry (reference value: 17.4%); assay type: functional
[15] = tested on: M21; assay: Cell cycle arrest in human M21 cells assessed as accumulation at G2/M phase at 10 uM after 24 hrs by DAPI staining-based flow cytometry (reference value: 16%); assay type: functional
[16] = tested on: M21; assay: Cell cycle arrest in human M21 cells assessed as accumulation at subG1 phase at 10 uM after 24 hrs by DAPI staining-based flow cytometry (reference value: 1.5%); assay type: functional
[17] = tested on: M21; assay: Induction DNA DSBs in human M21 cells assessed as increase in gamma H2AX foci at 10 uM incubated for 24 hrs by DAPI staining based immunocytochemistry; assay type: cell-based
[18] = tested on: M21; assay: Cell cycle arrest in human M21 cells assessed as accumulation at subG1 phase at 48 uM after 24 hrs by DAPI staining-based flow cytometry (reference value: 1.5%); assay type: functional
[19] = tested on: M21; assay: Cell cycle arrest in human M21 cells assessed as accumulation at G0/G1 phase at 48 uM after 24 hrs by DAPI staining-based flow cytometry (reference value: 65.1%); assay type: functional
[20] = tested on: M21; assay: Cell cycle arrest in human M21 cells assessed as accumulation at S phase at 48 uM after 24 hrs by DAPI staining-based flow cytometry (reference value: 17.4%); assay type: functional
[21] = tested on: M21; assay: Cell cycle arrest in human M21 cells assessed as accumulation at G2/M phase at 48 uM after 24 hrs by DAPI staining-based flow cytometry (reference value: 16%); assay type: functional
[22] = tested on: M21; assay: Cell cycle arrest in human M21 cells assessed as accumulation at subG1 phase at 5.1 uM after 24 hrs by DAPI staining-based flow cytometry (reference value: 1.5%); assay type: functional
[23] = tested on: M21; assay: Cell cycle arrest in human M21 cells assessed as accumulation at G0/G1 phase at 5.1 uM after 24 hrs by DAPI staining-based flow cytometry (reference value: 65.1%); assay type: functional
[24] = tested on: M21; assay: Cell cycle arrest in human M21 cells assessed as accumulation at S phase at 5.1 uM after 24 hrs by DAPI staining-based flow cytometry (reference value: 17.4%); assay type: functional
[25] = tested on: M21; assay: Cell cycle arrest in human M21 cells assessed as accumulation at G2/M phase at 5.1 uM after 24 hrs by DAPI staining-based flow cytometry (reference value: 16%); assay type: functional
[26] = tested on: M21; assay: Cell cycle arrest in human M21 cells assessed as accumulation at G0/G1 phase at 2.6 uM after 24 hrs by DAPI staining-based flow cytometry (reference value: 65.1%); assay type: functional
[27] = tested on: M21; assay: Cell cycle arrest in human M21 cells assessed as accumulation at S phase at 2.6 uM after 24 hrs by DAPI staining-based flow cytometry (reference value: 17.4%); assay type: functional
[28] = tested on: M21; assay: Cell cycle arrest in human M21 cells assessed as accumulation at G2/M phase at 2.6 uM after 24 hrs by DAPI staining-based flow cytometry (reference value: 16%); assay type: functional
[29] = tested on: M21; assay: Cell cycle arrest in human M21 cells assessed as accumulation at subG1 phase at 2.6 uM after 24 hrs by DAPI staining-based flow cytometry (reference value: 1.5%); assay type: functional

## O=C(NCCCl)Nc1ccc(S(=O)(=O)Oc2c(F)cccc2F)cc1
[1]
  IC50: 3200 nM
[2]
  IC50: 3200 nM
[3]
  IC50: 4100 nM
[4]
  IC50: 4800 nM
[5]
  Activity: 8.7%
[6]
  Activity: 29.4%
[7]
  Activity: 15.1%
[8]
  Activity: 46.8%

## CCOc1ccccc1OS(=O)(=O)c1ccc(NC(=O)NCCCl)cc1
[1]
  IC50: 2200 nM
[2]
  IC50: 1100 nM
[3]
  IC50: 1400 nM
[4]
  IC50: 1700 nM
[9]
  Activity: 6.7%
[10]
  Activity: 28.8%
[11]
  Activity: 11.8%
[12]
  Activity: 52.7%

## O=C(NCCCl)Nc1ccc(S(=O)(=O)Oc2ccccc2Cl)cc1
[1]
  IC50: 1100 nM
[2]
  IC50: 2100 nM
[3]
  IC50: 3500 nM
[4]
  IC50: 4200 nM
[13]
  Activity: 43.8%
[14]
  Activity: 33.3%
[15]
  Activity: 21%
[16]
  Activity: 1.9%
[17]
  Activity: Active

## O=C(NCCCl)Nc1ccc(S(=O)(=O)Oc2ccc(F)cc2F)cc1
[1]
  IC50: 9400 nM
[2]
  IC50: 9600 nM
[3]
  IC50: 9600 nM
[4]
  IC50: 9300 nM
[18]
  Activity: 5.2%
[19]
  Activity: 13.4%
[20]
  Activity: 10%
[21]
  Activity: 71.4%

## O=C(NCCCl)Nc1ccc(S(=O)(=O)Oc2cc(Cl)c(Cl)cc2Cl)cc1
[1]
  IC50: 1400 nM
[2]
  IC50: 1000 nM
[3]
  IC50: 1200 nM
[4]
  IC50: 1200 nM
[22]
  Activity: 5.5%
[23]
  Activity: 3.3%
[24]
  Activity: 8.6%
[25]
  Activity: 82.6%

## CCCc1ccccc1OS(=O)(=O)c1ccc(NC(=O)NCCCl)cc1
[1]
  IC50: 1900 nM
[2]
  IC50: 1300 nM
[3]
  IC50: 1900 nM
[4]
  IC50: 2100 nM
[26]
  Activity: 36%
[27]
  Activity: 37%
[28]
  Activity: 25.7%
[29]
  Activity: 1.3%
